Results as given in ChEMBL document CHEMBL3797185, “Exploring the 2- and 5-positions of the pyrazolo[4,3-d]pyrimidin-7-amino scaffold to target human A1 and A2A adenosine receptors” (Bioorg Med Chem, 2016).

Legend:
[1] = biological target: T1, Adenosine receptor A2b (Homo sapiens, UniProt P29275); test: Antagonist activity at human adenosine A2B receptor expressed in CHO cell membranes assessed as inhibition of NECA-stimulated cAMP level preincubated for 10 mins followed by NECA stimulation by scintillation counting method in presence of [3H]-cyclic AMP; assay type: functional
T1 sequence (P29275 whole entry): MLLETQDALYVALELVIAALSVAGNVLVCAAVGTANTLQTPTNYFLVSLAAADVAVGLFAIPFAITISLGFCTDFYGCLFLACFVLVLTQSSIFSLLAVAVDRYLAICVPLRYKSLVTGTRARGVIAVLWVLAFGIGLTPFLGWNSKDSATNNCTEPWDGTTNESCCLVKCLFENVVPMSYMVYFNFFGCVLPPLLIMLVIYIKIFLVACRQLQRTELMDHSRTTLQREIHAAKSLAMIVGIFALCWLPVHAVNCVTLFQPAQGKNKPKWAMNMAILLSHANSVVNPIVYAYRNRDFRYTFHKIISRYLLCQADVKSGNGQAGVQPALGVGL

[2] = biological target: T2, Adenosine receptor A3 (Homo sapiens, UniProt P0DMS8); test: Displacement of [125I]-AB-MECA from human adenosine A3 receptor expressed in CHO cell membranes after 60 mins by scintillation counting method
T2 sequence (P0DMS8 whole entry): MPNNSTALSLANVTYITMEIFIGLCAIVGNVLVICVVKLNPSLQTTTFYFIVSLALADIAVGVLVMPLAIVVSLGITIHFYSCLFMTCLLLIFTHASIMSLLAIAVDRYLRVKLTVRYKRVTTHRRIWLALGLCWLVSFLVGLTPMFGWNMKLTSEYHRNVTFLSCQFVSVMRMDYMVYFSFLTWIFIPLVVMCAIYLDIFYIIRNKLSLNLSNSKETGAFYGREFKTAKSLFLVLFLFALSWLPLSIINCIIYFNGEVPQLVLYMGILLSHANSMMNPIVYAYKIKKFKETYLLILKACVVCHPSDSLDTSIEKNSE

[3] = biological target: T3, Adenosine receptor A1 (Homo sapiens, UniProt P30542); test: Displacement of [3H]-DPCPX from human adenosine A1 receptor expressed in CHO cell membranes after 120 mins by scintillation counting method
T3 sequence (P30542 whole entry): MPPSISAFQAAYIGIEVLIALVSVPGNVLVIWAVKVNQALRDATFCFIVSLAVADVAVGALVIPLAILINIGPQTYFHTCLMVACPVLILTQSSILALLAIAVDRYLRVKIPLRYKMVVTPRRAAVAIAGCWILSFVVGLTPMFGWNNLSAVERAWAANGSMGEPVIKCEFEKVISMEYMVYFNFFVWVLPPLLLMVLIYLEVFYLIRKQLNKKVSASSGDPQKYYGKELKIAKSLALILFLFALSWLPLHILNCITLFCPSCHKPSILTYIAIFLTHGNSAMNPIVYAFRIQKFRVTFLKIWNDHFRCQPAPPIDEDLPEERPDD

[4] = species: Homo sapiens; test: Selectivity ratio of Ki for human adenosine A1 receptor to Ki for human adenosine A2A receptor
[5] = biological target: T4, Adenosine receptor A2a (Homo sapiens, UniProt P29274); test: Displacement of [3H]-ZM241385 from human adenosine A2A receptor expressed in CHO cell membranes after 60 mins by scintillation counting method
[6] = biological target: T5, Adenosine receptor A2b (Homo sapiens) (UniProt P29275); test: Antagonist activity at human adenosine A2B receptor expressed in CHO cell membranes assessed as inhibition of NECA-stimulated cAMP level at 1 uM preincubated for 10 mins followed by NECA stimulation by scintillation counting method in presence of [3H]-cyclic AMP; assay type: functional
T5 sequence (whole entry): T1 sequence (P29275 whole entry)

[7] = biological target: T4, Adenosine receptor A2a; test: Displacement of [3H]-ZM241385 from human adenosine A2A receptor expressed in CHO cell membranes at 1 uM after 60 mins by scintillation counting method relative to control
[8] = biological target: T6, Adenosine receptor A1 (Homo sapiens) (UniProt P30542); test: Displacement of [3H]-DPCPX from human adenosine A1 receptor expressed in CHO cell membranes at 1 uM after 120 mins by scintillation counting method relative to control
T6 sequence (whole entry): T3 sequence (P30542 whole entry)

[9] = biological target: T7, Adenosine receptor A3 (Homo sapiens) (UniProt P0DMS8); test: Displacement of [125I]-AB-MECA from human adenosine A3 receptor expressed in CHO cell membranes at 1 uM after 60 mins by scintillation counting method relative to control
T7 sequence (whole entry): T2 sequence (P0DMS8 whole entry)

[10] = biological target: T4, Adenosine receptor A2a; test: Antagonist activity at human adenosine A2A receptor expressed in CHO cell membranes assessed as inhibition of NECA-stimulated cAMP level preincubated for 10 mins followed by NECA stimulation by scintillation counting method in presence of [3H]-cyclic AMP; assay type: functional
[11] = biological target: T3, Adenosine receptor A1; test: Antagonist activity at human adenosine A1 receptor expressed in CHO cell membranes assessed as suppression of CCPA-mediated inhibition of cAMP level by scintillation counting method in presence of [3H]-cyclic AMP; assay type: functional

T4 sequence (P29274 whole entry): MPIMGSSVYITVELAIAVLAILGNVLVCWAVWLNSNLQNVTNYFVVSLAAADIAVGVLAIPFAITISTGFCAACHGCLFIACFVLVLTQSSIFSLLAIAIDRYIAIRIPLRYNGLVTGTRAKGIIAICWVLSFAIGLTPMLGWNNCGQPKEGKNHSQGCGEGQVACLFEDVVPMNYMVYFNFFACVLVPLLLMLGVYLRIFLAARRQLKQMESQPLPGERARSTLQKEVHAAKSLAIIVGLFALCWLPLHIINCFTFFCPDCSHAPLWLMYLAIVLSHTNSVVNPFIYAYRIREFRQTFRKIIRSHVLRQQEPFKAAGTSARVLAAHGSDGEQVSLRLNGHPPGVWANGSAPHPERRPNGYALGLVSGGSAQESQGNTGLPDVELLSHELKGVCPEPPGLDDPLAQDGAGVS

Row | Structure (SMILES) | IC50 [1] [nM] | Ki [2] [nM] | Ki [3] [nM] | Ratio Ki [4] | Ki [5] [nM] | inhibition [6] [%] | inhibition [7] [%] | inhibition [8] [%] | inhibition [9] [%] | IC50 [10] [nM] | IC50 [11] [nM]
1 | Nc1nc(Cc2ccccc2)nc2cn(Cc3ccccc3)nc12 |  |  |  |  |  | 1 | 1 | 1 | 15 |  | 
2 | Cc1nc(N)c2nn(CCc3ccccc3)cc2n1 |  |  |  |  |  | 3 | 12 | 10 | 3 |  | 
3 | COc1ccccc1-n1cc2nc(Cc3ccccc3)nc(N)c2n1 |  | 405 | 103 |  |  | 1 | 34 |  |  |  | 
4 | Nc1nc(-c2ccco2)nc2cn(-c3ccccc3O)nc12 |  |  | 372 |  | 89 | 42 |  |  | 36 |  | 
5 | Cc1nc(N)c2nn(-c3ccccc3F)cc2n1 |  |  | 410 |  |  | 8 | 23 |  | 8 |  | 
6 | Nc1nc(CCCc2ccccc2)nc2cn(-c3ccccc3O)nc12 |  |  | 17 |  | 240 | 5 |  |  | 5 |  | 
7 | COc1ccccc1-n1cc2nc(-c3cccs3)nc(N)c2n1 |  | 150 |  |  |  | 1 | 27 | 24 |  |  | 
8 | Nc1nc(Cc2ccccc2)nc2cn(-c3ccccc3O)nc12 |  |  | 52 |  |  | 1 | 21 |  | 19 |  | 
9 | Nc1nc(CCCc2ccccc2)nc2cn(-c3ccccc3F)nc12 |  | 163 |  |  |  | 1 | 43 | 25 |  |  | 
10 | Cn1cc2nc(Cc3ccccc3)nc(N)c2n1 |  |  |  |  |  | 20 | 1 | 9 | 1 |  | 
11 | Cn1cc2nc(CCCc3ccccc3)nc(N)c2n1 |  |  |  |  |  | 2 | 1 | 36 | 30 |  | 
12 | COc1ccccc1-n1cc2nc(CCCc3ccccc3)nc(N)c2n1 |  |  | 49 |  | 647 | 21 |  |  | 6 |  | 
13 | COc1ccccc1-n1cc2nc(-c3ccco3)nc(N)c2n1 |  |  |  |  | 362 | 12 |  | 31 | 37 |  | 
14 | Nc1nc(-c2cccs2)nc2cn(-c3ccccc3O)nc12 |  | 209 | 159 |  | 412 | 28 |  |  |  |  | 
15 | Nc1nc(-c2ccco2)nc2cn(-c3ccccc3)nc12 |  |  | 206 |  | 195 | 1 |  |  | 39 |  | 

Results, then the molecule that gave them:

Row | IC50 [1] [nM] | Ki [2] [nM] | Ki [3] [nM] | Ratio Ki [4] | Ki [5] [nM] | inhibition [6] [%] | inhibition [7] [%] | inhibition [8] [%] | inhibition [9] [%] | IC50 [10] [nM] | IC50 [11] [nM] | Structure (SMILES)
16 | 633 | 225 | 65 | 3 | 14 |  |  |  |  |  |  | Cc1ccc(-c2nc(N)c3nn(Cc4cccc(O)c4)cc3n2)o1
17 | 354 | 498 | 309 | 3 | 57 |  |  |  |  |  |  | Cc1ccc(-c2nc(N)c3nn(Cc4ccccc4F)cc3n2)o1
18 |  |  |  |  | 320 | 37 |  | 32 | 2 |  |  | Nc1nc(-c2ccco2)nc2cn(Cc3ccccc3)nc12
19 |  |  |  |  |  | 3 | 33 | 12 | 4 |  |  | Nc1nc(-c2ccco2)nc2cn(CCc3ccccc3)nc12
20 |  | 82 | 18 | 3 | 3.62 | 30 |  |  |  | 4.35 | 21 | COc1ccccc1Cn1cc2nc(-c3ccc(C)o3)nc(N)c2n1
21 |  | 297 |  |  | 518 | 1 |  | 1 |  |  |  | COc1ccccc1-n1cc2nc(-c3ccc(C)o3)nc(N)c2n1
22 |  | 375 |  |  | 147 | 1 |  | 1 |  |  |  | Cc1ccc(-c2nc(N)c3nn(-c4ccccc4O)cc3n2)o1
23 |  | 147 | 42 |  | 99 | 32 |  |  |  |  |  | Cc1ccc(-c2nc(N)c3nn(-c4ccccc4)cc3n2)o1
24 | 112 | 905 | 242 | 3 | 17 |  |  |  |  |  |  | Nc1nc(-c2ccco2)nc2cn(Cc3ccccc3O)nc12
25 |  | 269 | 136 | 15 | 9.23 | 20 |  |  |  | 10.9 | 152 | Cc1ccc(-c2nc(N)c3nn(Cc4ccccc4)cc3n2)o1
26 | 395 | 122 | 111 | 3 | 38 |  |  |  |  |  |  | Cc1ccc(-c2nc(N)c3nn(Cc4ccccc4O)cc3n2)o1
27 |  |  |  |  |  | 1 | 1 | 1 | 1 |  |  | Cc1nc(N)c2nn(Cc3ccccc3)cc2n1
28 | 512 | 196 | 98 | 3 | 5.37 |  |  |  |  | 6.21 | 106 | COc1ccccc1Cn1cc2nc(-c3ccco3)nc(N)c2n1
29 | 293 | 88 | 120 | 22 | 5.26 |  |  |  |  | 6.42 | 134 | COc1cccc(Cn2cc3nc(-c4ccc(C)o4)nc(N)c3n2)c1
30 | 421 | 427 | 252 | 3 | 51 |  |  |  |  |  |  | Cc1ccc(-c2nc(N)c3nn(Cc4cccc(F)c4)cc3n2)o1
31 | 152 | 71 | 60 | 3 | 6.21 |  |  |  |  |  |  | Cc1ccc(-c2nc(N)c3nn(Cc4ccccc4Cl)cc3n2)o1
